Patent US10072005B2, “4-azaindole derivatives” (EISAI R&D MANAGEMENT CO., LTD., priority 2013, dated 2018)

Target: mAChR M1 (Homo sapiens, UniProt P11229)
Test: In vitro cellular calcium flux assay, positive allosteric modulation of mAChR M1
Format: cell-based
Conditions: BHK cells expressing mAChR M1; EC20 carbachol; Examples 76-80 and 82-89 slightly modified procedure
Protocol: Baby hamster kidney cells stably expressing human or rat mAChR M1 to M5 were utilised for primary and selectivity profiling activities. mAChR M2 and M4 cell lines also stably expressed the chimeric Gαqi5 G-protein.
Human mAChR M1, M3, M5 and rat M1 cells were grown in low glucose Dulbecco's Modified Eagle's Medium (DMEM) medium plus heat inactivated 10% fetal bovine serum (HI FBS) and 500 μg/ml hygromycin B^1. Human mAChR M2 and M4 cells were maintained as above with^2 the addition of 500 μg/ml G418 to the media. Cells were maintained in culture at 37° C./5% CO2 and passaged twice weekly by treatment with 0.05% Trypsin/EDTA detachment solution, centrifugation (200 g, 5 min) and re-suspension in fresh media. Following cell expansion, cells were cryopreserved at −80° C. by treatment with 0.05% Trypsin/EDTA detachment solution, centrifugation (200 g, 5 min) and re-suspension of the pellet in freezing media (90% HI FBS/10% DMSO^3) at 15E6 cells/ml^4.
Prior to assaying, cells were prepared by thawing at 37° C. in a water bath, centrifugation (200 g, 5 min) and re-suspension of the pellet in fresh media. 15000 cells per well were seeded in black, clear bottomed 384-well Greiner Bio-One plates in plating medium (DMEM/10% HI FBS) and incubated overnight at 37 C/5% CO2.
On the day of the assay, media was removed from each well and replaced with 50 μl^5 assay buffer (HBSS with 20 mM HEPES and 2.5 mM Probenecid) containing the calcium indicator, Calcium 4 (Molecular Devices). Cells were then incubated at 37° C./5% CO2 for 30 min and at room temperature.
Compound preparation was carried out by generation of 11-point, 1 in 3 serial dilution concentration response curves in 100% DMSO. Compound was then diluted 1 in 65^6 with assay buffer (HBSS with 20 mM HEPES and 2.5 mM Probenecid) prior to the addition of 10 ul^7 to the cells using a Tetra fluorometric imaging plate reader (Molecular Devices)^8. Compound driven increases in intracellular calcium flux was measured as an increase in fluorescence (494Ex, 516Em)^9.
Positive allosteric modulator pEC50 values and antagonist pIC50 values for each compound were then determined. […] The points of modification and the alternate reagents, concentrations or equipment employed in these examples were: ^1200 μg/ml hygromycin B; ^2G418 not added; ^3CELLBANKER 1; ^410E6; ^5 40 μl; ^6 1 in 99; ^7 20 μl; ^8FDSS6000 (Hamamatsu Photonics); ^9(480Ex, 540Em); ^10Spotfire (TIBCO).

Chain of mAChR M1 (P11229 whole entry, looked up): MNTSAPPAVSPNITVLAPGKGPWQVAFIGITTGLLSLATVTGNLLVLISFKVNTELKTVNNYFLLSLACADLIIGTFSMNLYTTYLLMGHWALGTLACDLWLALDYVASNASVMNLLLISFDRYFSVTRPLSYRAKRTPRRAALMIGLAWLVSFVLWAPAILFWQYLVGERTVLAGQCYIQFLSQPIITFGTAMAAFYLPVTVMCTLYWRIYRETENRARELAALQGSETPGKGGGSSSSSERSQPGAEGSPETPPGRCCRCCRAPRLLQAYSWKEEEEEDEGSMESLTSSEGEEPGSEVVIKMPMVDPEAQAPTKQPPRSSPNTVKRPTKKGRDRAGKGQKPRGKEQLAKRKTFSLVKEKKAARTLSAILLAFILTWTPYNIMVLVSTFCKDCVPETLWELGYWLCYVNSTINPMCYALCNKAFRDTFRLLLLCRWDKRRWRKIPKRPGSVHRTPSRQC

SMILES | pEC50 for positive allosteric modulation
Cc1ccnc2c(C(=O)N[C@H]3CCCC[C@@H]3O)cn(Cc3cccc(F)c3)c12 [Example 65, 1-(3-Fluorobenzyl)-N-((1S,2S)-2-hydroxycyclohexyl)-7-methyl-1H-pyrrolo[3,2-b]pyridine-3-carboxamide] | 7.7
Cc1ccnc2c(C(=O)N[C@H]3CCCC[C@@H]3O)cn(Cc3ccc(Cl)cn3)c12 [Example 81, 1-((5-Chloropyridin-2-yl)methyl)-N-((1S,2S)-2-hydroxycyclohexyl)-7-methyl-1H-pyrrolo[3,2-b]pyridine-3-carboxamide] | 7.2
O=C(N[C@H]1CCCC[C@@H]1O)c1cn(Cc2cccc(C(F)(F)F)c2)c2cccnc12 [Example 95, N-((1S,2S)-2-hydroxycyclohexyl)-1-(3-(trifluoromethyl)benzyl)-1H-pyrrolo[3,2-b]pyridine-3-carboxamide] | 6.1
COc1ccnc2c(C(=O)N[C@H]3CCCC[C@@H]3O)cn(Cc3ccc(F)cc3)c12 [Example 37, 1-(4-Fluorobenzyl)-N-((1S,2S)-2-hydroxycyclohexyl)-7-methoxy-1H-pyrrolo[3,2-b]pyridine-3-carboxamide] | 6.7
Cc1cc(Cn2cc(C(=O)N[C@H]3CCCC[C@@H]3O)c3ncccc32)ccn1 [Example 76, N-((1S,2S)-2-Hydroxycyclohexyl)-1-((2-methylpyridin-4-yl)methyl)-1H-pyrrolo[3,2-b]pyridine-3-carboxamide] | 6.4
Cc1ccc2c(n1)c(C(=O)N[C@H]1CCCC[C@@H]1O)cn2Cc1ccc(-n2cccn2)cc1 [Example 40, 1-(4-(1H-Pyrazol-1-yl)benzyl)-N-((1S,2S)-2-hydroxycyclohexyl)-5-methyl-1H-pyrrolo[3,2-b]pyridine-3-carboxamide] | 6.5
O=C(N[C@H]1CCCC[C@@H]1O)c1cn(Cc2ccncc2)c2cccnc12 [Example 77, N-((1S,2S)-2-Hydroxycyclohexyl)-1-(pyridin-4-ylmethyl)-1H-pyrrolo[3,2-b]pyridine-3-carboxamide] | 6.3
O=C(NC1CCCCC1)c1cn(Cc2ccc(-n3cccn3)cc2)c2cccnc12 [Example 50, 1-(4-(1H-Pyrazol-1-yl)benzyl)-N-cyclohexyl-1H-pyrrolo[3,2-b]pyridine-3-carboxamide] | 6.4
Cc1ccnc2c(C(=O)N[C@H]3CCCC[C@@H]3O)cn(Cc3ccc(Cl)nc3)c12 [Example 59, 1-((6-Chloropyridin-3-yl)methyl)-N-((1S,2S)-2-hydroxycyclohexyl)-7-methyl-1H-pyrrolo[3,2-b]pyridine-3-carboxamide] | 7.4
COc1ccc(Cn2cc(C(=O)N[C@H]3CCCC[C@@H]3O)c3nccc(Cl)c32)cc1 [Example 58, 7-Chloro-N-((1S,2S)-2-hydroxycyclohexyl)-1-(4-methoxybenzyl)-1H-pyrrolo[3,2-b]pyridine-3-carboxamide] | 7.7
O=C(N[C@H]1CCCC[C@@H]1O)c1cn(Cc2ccc(F)cn2)c2c(Cl)ccnc12 [Example 17, 7-Chloro-1-((5-fluoropyridin-2-yl)methyl)-N-((1S,2S)-2-hydroxycyclohexyl)-1H-pyrrolo[3,2-b]pyridine-3-carboxamide] | 6.9
O=C(N[C@H]1CCCC[C@@H]1O)c1cn(Cc2cc(F)ccc2F)c2cccnc12 [Example 3, 1-(2,5-Difluorobenzyl)-N-((1S,2S)-2-hydroxycyclohexyl)-1H-pyrrolo[3,2-b]pyridine-3-carboxamide] | 6.8
Cc1ccc(Cn2cc(C(=O)N[C@H]3CCCC[C@@H]3O)c3ncccc32)nc1 [Example 26, N-((1S,2S)-2-Hydroxycyclohexyl)-1-((5-methylpyridin-2-yl)methyl)-1H-pyrrolo[3,2-b]pyridine-3-carboxamide] | 6.1
Cc1cc(-c2ccc(Cn3cc(C(=O)N[C@H]4CCCC[C@@H]4O)c4ncccc43)c(F)c2)ccn1 [Example 45, 1-(2-Fluoro-4-(2-methylpyridin-4-yl)benzyl)-N-((1S,2S)-2-hydroxycyclohexyl)-1H-pyrrolo[3,2-b]pyridine-3-carboxamide] | 7.5
Cc1ccc(Cn2cc(C(=O)N[C@H]3CCCC[C@@H]3O)c3nccc(C)c32)nc1 [Example 64, N-((1S,2S)-2-Hydroxycyclohexyl)-7-methyl-1-((5-methylpyridin-2-yl)methyl)-1H-pyrrolo[3,2-b]pyridine-3-carboxamide] | 7.2
O=C(N[C@H]1CCCC[C@@H]1O)c1cn(Cc2ccc(Br)cc2)c2cccnc12 [Example 56, 1-(4-Bromobenzyl)-N-((1S,2S)-2-hydroxycyclohexyl)-1H-pyrrolo[3,2-b]pyridine-3-carboxamide] | 6.5
Cc1cccc(-c2ccc(Cn3cc(C(=O)N[C@H]4CCCC[C@@H]4O)c4ncccc43)c(F)c2)n1 [Example 44, 1-(2-Fluoro-4-(6-methylpyridin-2-yl)benzyl)-N-((1S,2S)-2-hydroxycyclohexyl)-1H-pyrrolo[3,2-b]pyridine-3-carboxamide] | 6.9
O=C(N[C@H]1CCCC[C@@H]1O)c1cn(Cc2cc(F)cc(F)c2)c2cccnc12 [Example 2, 1-(3,5-Difluorobenzyl)-N-((1S,2S)-2-hydroxycyclohexyl)-1H-pyrrolo[3,2-b]pyridine-3-carboxamide] | 6.7
COc1cc(Cn2cc(C(=O)N[C@H]3CCCC[C@@H]3O)c3nccc(Cl)c32)ccn1 [Example 69, 7-Chloro-N-((1S,2S)-2-hydroxycyclohexyl)-1-((2-methoxypyridin-4-yl)methyl)-1H-pyrrolo[3,2-b]pyridine-3-carboxamide] | 8.0
N#Cc1ccnc2c(C(=O)N[C@H]3CCCC[C@@H]3O)cn(Cc3ccc(F)cc3)c12 [Example 32, 7-Cyano-1-(4-fluorobenzyl)-N-((1S,2S)-2-hydroxycyclohexyl)-1H-pyrrolo[3,2-b]pyridine-3-carboxamide] | 6.7
Cn1cc(Cn2cc(C(=O)N[C@H]3CCCC[C@@H]3O)c3nccc(Cl)c32)cn1 [Example 72, 7-Chloro-N-((1S,2S)-2-hydroxycyclohexyl)-1-((1-methyl-1H-pyrazol-4-yl)methyl)-1H-pyrrolo[3,2-b]pyridine-3-carboxamide] | 7.8
COc1cc(Cn2cc(C(=O)N[C@H]3CCCC[C@@H]3O)c3ncccc32)ccc1F [Example 91, 1-(4-fluoro-3-methoxybenzyl)-N-((1S,2S)-2-hydroxycyclohexyl)-1H-pyrrolo[3,2-b]pyridine-3-carboxamide] | 6.3
COc1ccc(Cn2cc(C(=O)N[C@H]3CCCC[C@@H]3O)c3nccc(C)c32)cc1C [Example 66, N-((1S,2S)-2-Hydroxycyclohexyl)-1-(4-methoxy-3-methylbenzyl)-7-methyl-1H-pyrrolo[3,2-b]pyridine-3-carboxamide] | 7.9
COc1ccc(Cn2cc(C(=O)N[C@H]3CCCC[C@@H]3O)c3ncccc32)c(F)c1 [Example 92, 1-(2-fluoro-4-methoxybenzyl)-N-((1S,2S)-2-hydroxycyclohexyl)-1H-pyrrolo[3,2-b]pyridine-3-carboxamide] | 6.4
COc1ccnc2c(C(=O)N[C@H]3CCCC[C@@H]3O)cn(Cc3cccc(F)c3F)c12 [Example 104, 1-(2,3-difluorobenzyl)-N-((1S,2S)-2-hydroxycyclohexyl)-7-methoxy-1H-pyrrolo[3,2-b]pyridine-3-carboxamide] | 6.3
O=C(N[C@H]1CCCC[C@@H]1O)c1cn(Cc2ccc(OC(F)(F)F)cc2)c2c(Cl)ccnc12 [Example 99, 7-chloro-N-((1S,2S)-2-hydroxycyclohexyl)-1-(4-(trifluoromethoxy)benzyl)-1H-pyrrolo[3,2-b]pyridine-3-carboxamide] | 6.7
